Here are results for 13 compounds from patent US20100173332A1, “Method for the Fluorescent Detection of Nitroreductase Activity Using Nitro-Substituted Aromatic Compounds” (Auckland Uniservices Limited, priority 2006, published 2010).

The target of data set [1] is T1, NAD(P)H dehydrogenase quinone 1 (DT-diaphorase; NQO1) (Homo sapiens, UniProt P15559).
T1 construct: expressed in transfected cells; host or cells: MDA231 human breast cancer cell line, clonal derivative MDA231 DTD
Nature of the data set: Detecting human aerobic nitroreductase activity in MDA231 DTD cells. To be noted: for fluorescent signal in the presence of human NQO1 expression: MDA231 DTD cells, 100 μM, 4 hr (FIG. 5). Type of data set: cell-based. How it is done: The human breast cancer cell line (MDA231^WT) and a clonal derivative (MDA231^DTD) engineered to express the human aerobic reductase, NAD(P)H dehydrogenase quinone 1 (DT-diaphorase; NQO1) under the control of a constitutive promoter were seeded into 96-well plates at a density of 1×10^5 cells/well. When samples were equilibrated to 37° C., 5% CO2 for 2 hr and compounds 1 to 15 were added to a final concentration of 100 μM for 4 hr. Test groups were cell-free culture media alone (control), MDA231^WT and MDA231^DTD. The fluorescence signal was monitored at 355/460 except for compounds 4 and 11 that were monitored at 405/585 and compounds 8 and 10 that were monitored at 355/585 and 355/535 respectively (FIG. 5).
In a further exemplification, the human breast cancer cell line (MDA231^WT) and a clonal derivative (MDA231^DTD) engineered to express the human NQO1 gene (DT-diaphorase) under the control of a constitutive promoter were seeded into 96-well tissue culture plates at 1×10^5 cells/well. Samples were equilibrated to 37° C., 5% CO2, compound (1) (6-nitro-4(1H)-quinolinone) was added to a final concentration of 300 μM. Test groups were culture media alone (control), MDA231^WT cells and MDA231^DTD cells. The rate of fluorescence signal generation at 355/460 was monitored as a function of time (FIG. 6).

The nature of data set [2]: Aerobic/anaerobic stability in cell-free culture media (fluorescence). The data set is classed as physicochemical. To be noted: 100 μM, 37° C., 4 hr, air or 95% N2. How it is done: Compounds 1-15 or methyl 7-nitrocoumarin carboxylate (methyl 7-nitro-2-oxo-2H-chromene-3-carboxylate) or 7-nitrocoumarin-3-carboylic acid or 6-chloro-9-nitro-5H-benzo[a]phenoxazin-5-one were added to a final concentration of 100 μM in cell-free culture media and were held at 37° C., 5% CO2 for 4 hr under either air or 95% N2. The fluorescence signal was monitored at 355/460 except for compounds 4 and 11 that were monitored at 405/585 and compounds 8, 10 and 6-Cl-9-nitro-5-oxo-5H-benzo[a]phenoxazine that were monitored at 355/585, 355/535 and 530/585 respectively (FIG. 12).

A short description of data set [3]: Aqueous stability in minimal essential media in the absence of cells (background fluorescence). Type of data set: physicochemical. To be noted: for increase in background florescence in culture media: 300 μM, minimal essential media, 37° C., 5% CO2, 355/460, over 7.8 hours; for aqueous stability compared with methyl-7-nitrocoumarin carboxylate and 7-nitrocoumarin-3-carboxylic acid: FIG. 11. As for the experimental part: In a further experiment, the aqueous stability of compounds 1 and 2 were compared with the compounds methyl-7-nitrocoumarin carboxylate and 7-nitrocoumarin-3-carboxylic acid in the absence of cell culture. Minimal essential media was equilibrated to 37° C., 5% CO2 for 2 hr and compounds were added to a final concentration of 300 μM. […]

In data set [4] the target is T2, E. coli nitroreductase (nfsB) (Escherichia coli, UniProt P38489).
T2 construct: expressed in transfected cells; host or cells: MDA231 (MDA-231) human breast cancer cell line, clonal derivative MDA231 NTR
The experiment in a line: Entrapment of fluorescent products within nitroreductase expressing HCT116 cells. Type of data set: cell-based. To be noted: washed. As for the experimental part:
The human colorectal cancer cell line (HCT116^WT) and a clonal derivative (HCT116^NTR) engineered to express the reporter gene E. coli nitroreductase (nfsB) under the control of a constitutive promoter were seeded onto glass coverslips at an equal density (50:50). Cells were equilibrated to 37° C., 5% CO2, and compound 1 and 13 was added to a final concentration of 100 μM for 1 hr. Cells were washed free of compound after 1 hour and fluorescence was monitored as a function of time (FIG. 8).
In further screening (FIG. 9), the human colorectal cancer cell line (HCT116^WT) and a clonal derivative (HCT116^NTR) engineered to express the reporter gene E. coli nitroreductase (nfsB) under the control of a constitutive promoter were seeded separately into a 96-well glass plate. Cells were equilibrated to 37° C., 5% CO2, and compounds were added to a final concentration of 10 μM for 1.5 hr. Cells were washed free of compound and fluorescence was monitored 6 hours post-exposure. […] The image has been rendered monochromatic for the purposes of publication quality.

In data set [5] the target is T2, E. coli nitroreductase (nfsB). The experiment in a line: Nitroreductase specificity: fluorescence in MDA231 NTR versus MDA231 WT cells. Type of data set: cell-based. To be noted: for differential fluorescent signal MDA231 NTR versus MDA231 WT: 95% N2, 355/460, at 7.5 hours. How it is done:
The human breast cancer cell line (MDA231^WT) and a clonal derivative (MDA231^NTR) engineered to overexpress the E. coli nitroreductase (nfsB) under the control of a constitutive promoter were seeded into 96-well plates at a density of 2×10^4 cells/well. When samples were equilibrated to 37° C., 95% N2, 5% CO2 for 2 hr and compound 2 or methyl 7-nitrocoumarin carboxylate (methyl 7-nitro-2-oxo-2H-chromene-3-carboxylate) were added to a final concentration of 300 μM. The fluorescence signal was monitored at 355/460 over a 7.5 hour time frame (FIG. 10).

For data set [6] the target is unchanged. Nature of the data set: Rate of fluorescence signal generation in stirred HCT116 NTR cell suspension. Type of data set: cell-based. To be noted: 300 μM, 355/460. As for the experimental part: In a further exemplification, the human colorectal cancer cell line (HCT116^WT) and a clonal derivative (HCT116^NTR) engineered to express the reporter gene E. coli nitroreductase (nfsB) under the control of a constitutive promoter were suspended in stirred culture media at a density of 5×10^6 cells/ml. When samples were equilibrated to 37° C., 5% CO2, compound (2) (1-methyl-6-nitro-4(1H)-quinolinone) was added to a final concentration of 300 μM. Test groups were culture media alone (control), HCT116^WT and HCT116^NTR. The rate of fluorescence signal generation at 355/460 was monitored as a function of time (FIG. 4).

Setting [7] is: 300 μM, 95% N2, 355/460, 7.5 hour time frame.

Structures are written as SMILES. “Also recorded” adds a separate entry of the source. Counter-ions that a name gives are not always drawn. Where only a bound is given, the exact number is not on record here.

T1 sequence (P15559 whole entry): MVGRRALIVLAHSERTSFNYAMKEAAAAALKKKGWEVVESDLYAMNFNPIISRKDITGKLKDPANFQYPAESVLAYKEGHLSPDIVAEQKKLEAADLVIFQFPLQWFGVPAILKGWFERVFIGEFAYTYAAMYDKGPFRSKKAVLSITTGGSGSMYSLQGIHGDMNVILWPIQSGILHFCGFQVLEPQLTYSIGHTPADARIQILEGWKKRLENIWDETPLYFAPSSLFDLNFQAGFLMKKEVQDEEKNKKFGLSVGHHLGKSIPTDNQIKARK
T2 sequence (P38489 whole entry): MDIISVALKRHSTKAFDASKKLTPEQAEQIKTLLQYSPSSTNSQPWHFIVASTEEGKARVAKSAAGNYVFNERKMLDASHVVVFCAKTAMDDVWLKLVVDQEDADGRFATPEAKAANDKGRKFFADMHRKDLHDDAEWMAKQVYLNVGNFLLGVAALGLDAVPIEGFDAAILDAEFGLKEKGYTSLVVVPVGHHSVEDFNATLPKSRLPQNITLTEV

For `Cc1cc(=O)c2cc([N+](=O)[O-])ccc2[nH]1` [Compound 3, 2-Methyl-6-nitro-4(1H)-quinolinone], in data set [1], the “fluorescent signal in the presence of human NQO1 expression” value is given as “gave rise to a fluorescent signal; also recorded: generate a fluorescent signal”.
Usually melting point stands for the temperature, or range, at which the solid turns liquid. The compound `CN(C)CCNC(=O)c1cc(N)cc2c(=O)c3ccccc3[nH]c12` [Compound 18, 2-Amino-N-[2-(dimethylamino)ethyl]-9-oxo-9,10-dihydro-4-acridinecarboxamide] had a melting point of 198 to 202 °C.
For the compound `O=c1c(Cl)c2oc3cc([N+](=O)[O-])ccc3nc-2c2ccccc12` [6-chloro-9-nitro-5H-benzo[a]phenoxazin-5-one], in data set [2], the “fluorescence in cell-free culture media (instability)” value is “measurable fluorescence; also recorded: lacks stability in culture medium under conditions of low oxygen”.
As to `O=C(O)c1cc2ccc([N+](=O)[O-])cc2oc1=O` [7-nitrocoumarin-3-carboxylic acid, reference compound], the “increase in background florescence in culture media” value (from here on “increase in background florescence”) in data set [3] came to 5.3 fold. Also, the “fluorescence in cell-free culture media (instability)” value in data set [2] is reported as “measurable fluorescence”.
`CN(C)CCCCN1C(=O)c2cccc3cc(N)cc(c23)C1=O` [Compound 19, 5-Amino-2-[4-(dimethylamino)butyl]-1H-benzo[de]isoquinoline-1,3(2H)-dione] gave a melting point of 99 to 101 °C.
Consider `O=c1cc[nH]c2ccc([N+](=O)[O-])cc12` [Compound 1, 6-Nitro-4(1H)-quinolinone], for which, in data set [1] (300 μM, 355/460), the “fluorescence in wells with compound alone (control) or parental MDA231 WT” value was “No detectable fluorescence”. Further, the “fluorescent signal generation by MDA231 DTD cells as a function of time” value in data set [1] (300 μM, 355/460 (FIG. 6)) is given as “generate a fluorescent signal”. In addition, the “fluorescent signal in the presence of human NQO1 expression” value in data set [1] was “gave rise to a fluorescent signal”. Moreover, the “retention of fluorescence in cells after wash” value in data set [4] (HCT116 WT:HCT116 NTR 50:50 co-culture, 100 μM for 1 hr, by 4 hours) is listed as “no longer fluorescent”. Moreover, in data set [3], the “increase in background florescence” value stood at 1.4 fold; the “aqueous stability compared with methyl-7-nitrocoumarin carboxylate and 7-nitrocoumarin-3-carboxylic acid” value is given as “superior aqueous stability”.
Regarding `COC(=O)CCCNS(=O)(=O)c1cccc2c([N+](=O)[O-])cccc12` [Compound 8, methyl 4-{[(5-nitro-1-naphthyl)sulfonyl]amino}butanoate], the melting point lay within 94 to 96 °C.
In the case of `COC(=O)c1cc2ccc([N+](=O)[O-])cc2oc1=O` [methyl 7-nitrocoumarin carboxylate, methyl 7-nitro-2-oxo-2H-chromene-3-carboxylate, reference compound], in data set [5] (setting [7]), the “fluorescence in control cell line MDA231 WT” value is listed as “measurable fluorescence”. In addition, in data set [5] (300 μM), the “differential fluorescent signal MDA231 NTR versus MDA231 WT” value was found to be 1.6 fold. Moreover, the “increase in background florescence” value in data set [3] was 4.2 fold. For the same compound, in data set [2], the “fluorescence in cell-free culture media (instability)” value was “measurable fluorescence”.
Compound `COC(=O)CCCNS(=O)(=O)c1ccc2cccc(N)c2c1` [Compound 22, Methyl 4-{[(8-amino-2-naphthyl)sulfonyl]amino}butanoate] yielded a melting point of 162 to 167 °C.
Same read-out and setting: the value for `Cn1ccc(=O)c2cc(N)ccc21` [Compound 17, 6-Amino-1-methyl-4(1H)-quinolinone] was 212 to 214 °C.
Regarding `CN(C)CCCNc1ccnc2cc([N+](=O)[O-])ccc12` [Compound 15, N^1,N^1-Dimethyl-N^3-(7-nitro-4-quinolinyl)-1,3-propanediamine], the “cellular retention of fluorescence in nitroreductase expressing but not parental HCT116 cells” value in data set [4] (10 μM for 1.5 hr, 6 hours post-exposure) is “possessing cellular retention properties”.
`CN(C)CCCOc1ccnc2cc([N+](=O)[O-])ccc12` (as salt: trifluoroacetate) [Compound 14, N,N-dimethyl-3-[(7-nitro-4-quinolinyl)oxy]-1-propanamine] displayed a melting point of 146 to 149 °C.
For the compound `Cn1ccc(=O)c2cc([N+](=O)[O-])ccc21` [Compound 2, 1-Methyl-6-nitro-4(1H)-quinolinone], the “time by which reduction by HCT116 NTR cells approached completion” value in data set [6] (5×10^6 cells/ml) is ≤ 9 h. Besides, the “fluorescence in control or parental HCT116 WT cultures” value in data set [6] is reported as “No detectable fluorescence”. Moreover, in data set [5] (setting [7]), the “fluorescence in control cell line MDA231 WT” value is recorded as “no detectable fluorescence” and the “fluorescence in nitroreductase-expressing cell line MDA231 NTR” value was “robust fluorescent signal”. For the same compound, in data set [5] (300 μM), the “differential fluorescent signal MDA231 NTR versus MDA231 WT” value worked out at 480 fold. The “performance as nitroreductase fluorescent reporter relative to methyl 7-nitrocoumarin carboxylate” value in data set [5] (FIG. 10) is on record as “superiority”. In addition, in data set [3], the “increase in background florescence” value came out at 1.4 fold; the “aqueous stability compared with methyl-7-nitrocoumarin carboxylate and 7-nitrocoumarin-3-carboxylic acid” value is “superior aqueous stability”.
